Experimental data from patent US20260285850A1, “SUBSTITUTED OXAZOLIDINONES AND IMIDAZOLINONES AS HERBICIDES” (FMC CORPORATION, priority 2023, published 2026).

Assays:
Assay type in all cases: in vivo
[1] = test system: ducksalad (Heteranthera limosa); assay: Test B flooded paddy test, visual plant response rating 0-100; settings: 250 g ai/ha, Flood, applied to paddy water, evaluated after 13 days
Summary of the method: (§1)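 Greenhouse, 13 d. Seedlings at 2-leaf stage, pots flooded to 3 cm, compound delivered into floodwater, water level held constant. Evaluated visually relative to controls.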

[2] = test system: barnyardgrass (Echinochloa crusgalli); assay: as above; settings: 250 g ai/ha, Flood, applied to paddy water, evaluated after 13 days
Summary of the method: as §1

[3] = test system: sedge, umbrella (small-flower umbrella sedge, Cyperus difformis); assay: as above; settings: 250 g ai/ha, Flood, applied to paddy water, evaluated after 13 days
Summary of the method: as §1

rice (Oryza sativa) = assay: as above; settings: 250 g ai/ha, Flood, applied to paddy water, evaluated after 13 days
Summary of the method: as §1

[4] = test system: oat, wild (wild oat, Avena fatua); assay: Test A preemergence soil spray, visual injury rating 0-100; settings: 10 days, 0 = no effect, 100 = complete control
Summary of the method: (§2)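 Preemergence directed soil spray or postemergence spray (2-10 cm, 1-2 leaf); loam/sand mix; compound in non-phytotoxic solvent + surfactant. Greenhouse, 10 d. Visual injury vs untreated, 0 = none, 100 = complete control.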

[5] = test system: green foxtail (Setaria viridis); assay: as above; settings: 10 days, 0 = no effect, 100 = complete control
Summary of the method: as §2

kochia (Bassia scoparia) [6] = assay: as above; settings: 10 days, 0 = no effect, 100 = complete control
Summary of the method: as §2

corn (Zea mays) [7] = assay: as above; settings: 10 days, 0 = no effect, 100 = complete control
Summary of the method: as §2

[8] = test system: ryegrass, Italian (italian ryegrass, Lolium multiflorum); assay: as above; settings: 10 days, 0 = no effect, 100 = complete control
Summary of the method: as §2

[9] = test system: blackgrass (Alopecurus myosuroides); assay: as above; settings: 10 days, 0 = no effect, 100 = complete control
Summary of the method: as §2

[10] = test system: ragweed (common ragweed, Ambrosia artemisiifolia); assay: as above; settings: 10 days, 0 = no effect, 100 = complete control
Summary of the method: as §2

[11] = test system: wheat (Triticum aestivum); assay: as above; settings: 10 days, 0 = no effect, 100 = complete control
Summary of the method: as §2

[12] = test system: palmer (palmer amaranth, palmer pigweed, Amaranthus palmeri); assay: as above; settings: 10 days, 0 = no effect, 100 = complete control
Summary of the method: as §2

soybean (Glycine max) [13] = assay: as above; settings: 10 days, 0 = no effect, 100 = complete control
Summary of the method: as §2

[14] = test system: barnyardgrass (Echinochloa crus-galli); assay: as above; settings: 10 days, 0 = no effect, 100 = complete control
Summary of the method: as §2

[15] = test system: oat, wild (wild oat, Avena fatua); assay: Test A postemergence application, visual injury rating 0-100; settings: 10 days
From the text: (§3) Seeds of plant species selected from barnyardgrass (Echinochloa crus-galli), blackgrass (Alopecurus myosuroides), corn (Zea mays), foxtail, giant (giant foxtail, Setaria faberi), green foxtail (Setaria viridis), goosegrass (Eleusine indica), kochia (Bassia scoparia), oat, wild (wild oat, Avena fatua), palmer (palmer amaranth, palmer pigweed, Amaranthus palmeri), ragweed (common ragweed, Ambrosia artemisiifolia), ryegrass, Italian (italian ryegrass, Lolium multiflorum), soybean (Glycine max) and wheat (Triticum aestivum) were planted into a blend of loam soil and sand and treated preemergence with a directed soil spray using test chemicals formulated in a non-phytotoxic solvent mixture which included a surfactant.
(§4) At the same time, plants selected from these crops and weed species and also galium (catchweed bedstraw, Galium aparine) and horseweed (Erigeron canadensis) were planted in pots containing the same blend of loam soil and sand and treated with postemergence applications of test chemicals formulated in the same manner. Plants ranged in height from 2 to 10 cm and were in the one- to two-leaf stage for the postemergence treatment. Treated plants and untreated controls were maintained in a greenhouse for 10 days, after which time all treated plants were compared to untreated controls and visually evaluated for injury. Plant response ratings, summarized in Table A, are based on a 0 to 100 scale where 0 is no effect and 100 is complete control. A dash (-) response means no test result.

[16] = test system: green foxtail (Setaria viridis); assay: as above; settings: 10 days
From the text: as §3, §4

kochia (Bassia scoparia) [17] = assay: as above; settings: 10 days
From the text: as §3, §4

corn (Zea mays) [18] = assay: as above; settings: 10 days
From the text: as §3, §4

[19] = test system: ryegrass, Italian (italian ryegrass, Lolium multiflorum); assay: as above; settings: 10 days
From the text: as §3, §4

[20] = test system: blackgrass (Alopecurus myosuroides); assay: as above; settings: 10 days
From the text: as §3, §4

[21] = test system: ragweed (common ragweed, Ambrosia artemisiifolia); assay: as above; settings: 10 days
From the text: as §3, §4

[22] = test system: horseweed (Erigeron canadensis); assay: as above; settings: 10 days
From the text: as §3, §4

[23] = test system: wheat (Triticum aestivum); assay: as above; settings: 10 days
From the text: as §3, §4

[24] = test system: palmer (palmer amaranth, palmer pigweed, Amaranthus palmeri); assay: as above; settings: 10 days
From the text: as §3, §4

soybean (Glycine max) [25] = assay: as above; settings: 10 days
From the text: as §3, §4

[26] = test system: barnyardgrass (Echinochloa crus-galli); assay: as above; settings: 10 days
From the text: as §3, §4

[27] = 31 g ai/ha, postemergence, 0 = no effect, 100 = complete control
[28] = Postemergence, 125 g ai/ha, 0 is no effect, 100 is complete control

`CCOC(=O)C1CCC(NC(=O)C2(C)CN(c3cc(F)cc(F)c3)C(=O)O2)C1` (centres unmarked) [Compound 11] was tested, and the “Plant response rating, Ducksalad (0 to 100 scale, 0 is no effect and 100 is complete control)” value [1] was 65, the “Plant response rating, Barnyardgrass (0 to 100 scale, 0 is no effect and 100 is complete control)” value [2] was 50 and the “Plant response rating, Sedge, Umbrella (0 to 100 scale, 0 is no effect and 100 is complete control)” value [3] was 60. The “Plant response rating, Rice (0 to 100 scale, 0 is no effect and 100 is complete control)” value (rice (Oryza sativa)) was 25, the “Oat, Wild plant response rating (0-100)” value ([4]; 31 g ai/ha) was 20 and the “Oat, Wild plant response rating (0 to 100 scale)” value ([4]; 125 g ai/ha) was 80. For the same molecule, the “Foxtail, Green plant response rating (0-100)” value ([5]; 31 g ai/ha) was 0, the “Foxtail, Green plant response rating (0 to 100 scale)” value ([5]; 125 g ai/ha) was 100 and the “Kochia plant response rating (0-100)” value (kochia (Bassia scoparia) [6]; 31 g ai/ha) was 0. For the same molecule, the “Kochia plant response rating (0 to 100 scale)” value (kochia (Bassia scoparia) [6]; 125 g ai/ha) was 50, the “Corn plant response rating (0-100)” value (corn (Zea mays) [7]; 31 g ai/ha) was 0 and the “Corn plant response rating (0 to 100 scale)” value (corn (Zea mays) [7]; 125 g ai/ha) was 50. The “Ryegrass, Italian plant response rating (0-100)” value ([8]; 31 g ai/ha) was 40, the “Ryegrass, Italian plant response rating (0 to 100 scale)” value ([8]; 125 g ai/ha) was 90 and the “Blackgrass plant response rating (0-100)” value ([9]; 31 g ai/ha) was 20. The “Blackgrass plant response rating (0 to 100 scale)” value ([9]; 125 g ai/ha) was 90, the “Ragweed plant response rating (0-100)” value ([10]; 31 g ai/ha) was 0 and the “Ragweed plant response rating (0 to 100 scale)” value ([10]; 125 g ai/ha) was 70. For the same molecule, the “Wheat plant response rating (0-100)” value ([11]; 31 g ai/ha) was 90, the “Wheat plant response rating (0 to 100 scale)” value ([11]; 125 g ai/ha) was 100 and the “Amaranth, Palmer plant response rating (0-100)” value ([12]; 31 g ai/ha) was 0. The “Amaranth, Palmer plant response rating (0 to 100 scale)” value ([12]; 125 g ai/ha) was 30, the “Soybean plant response rating (0-100)” value (soybean (Glycine max) [13]; 31 g ai/ha) was 0 and the “Soybean plant response rating (0 to 100 scale)” value (soybean (Glycine max) [13]; 125 g ai/ha) was 20. For the same molecule, the “Barnyardgrass plant response rating (0-100)” value ([14]; 31 g ai/ha) was 0, the “Barnyardgrass plant response rating (0 to 100 scale)” value ([14]; 125 g ai/ha) was 100 and the “Oat, Wild plant response rating (0-100)” value [15, 27] was 80. For the same molecule, the “Oat, Wild plant response rating (0 to 100 scale)” value [15, 28] was 90, the “Foxtail, Green plant response rating (0-100)” value [16, 27] was 30 and the “Foxtail, Green plant response rating (0 to 100 scale)” value [16, 28] was 90. For the same molecule, the “Kochia plant response rating (0-100)” value (kochia (Bassia scoparia) [17]; [27]) was 20, the “Kochia plant response rating (0 to 100 scale)” value (kochia (Bassia scoparia) [17]; [28]) was 80 and the “Corn plant response rating (0-100)” value (corn (Zea mays) [18]; [27]) was 10. For the same molecule, the “Corn plant response rating (0 to 100 scale)” value (corn (Zea mays) [18]; [28]) was 80, the “Ryegrass, Italian plant response rating (0-100)” value [19, 27] was 50 and the “Ryegrass, Italian plant response rating (0 to 100 scale)” value [19, 28] was 70. The “Blackgrass plant response rating (0-100)” value [20, 27] was 30, the “Blackgrass plant response rating (0 to 100 scale)” value [20, 28] was 90 and the “Ragweed plant response rating (0-100)” value [21, 27] was 0. For the same molecule, the “Ragweed plant response rating (0 to 100 scale)” value [21, 28] was 0, the “Horseweed plant response rating (0-100)” value [22, 27] was 30 and the “Horseweed plant response rating (0 to 100 scale)” value [22, 28] was 20. The “Wheat plant response rating (0-100)” value [23, 27] was 80, the “Wheat plant response rating (0 to 100 scale)” value [23, 28] was 90 and the “Amaranth, Palmer plant response rating (0-100)” value [24, 27] was 30. The “Amaranth, Palmer / Pigweed, Palmer plant response rating (0 to 100 scale)” value [24, 28] was 60, the “Soybean plant response rating (0-100)” value (soybean (Glycine max) [25]; [27]) was 50 and the “Soybean plant response rating (0 to 100 scale)” value (soybean (Glycine max) [25]; [28]) was 60. The “Barnyardgrass plant response rating (0-100)” value [26, 27] was 60 and the “Barnyardgrass plant response rating (0 to 100 scale)” value [26, 28] was 100.
